Measurements reported in patent US11572402B2, “Method for promoting diversification of antibody variable region” (Chiome Bioscience Inc., priority 2017, dated 2023).

Tested on: BMAA4-2 cell line
Assay: Sequence change analysis of antibody variable regions according to NGS (NUS, SBL)
Format: cell-based, chicken
Conditions: BMAA4-2 cells, versus negative control sample
Method: A frozen stock of the BMAA4-2 cell line (3.0×10^6 cells) was awaken with 10 mL of CS(−) medium, using a 25 cm^2 Flask, and the cells were then cultured in a CO2 incubator (39.5° C., 5% CO2). On the following day, 2 mL each of a CS(−) medium, to which each drug had been added, was added into each well of a 12-well dish (Nunc, 150628), and the cells were then seeded thereon to a cell density of 6.0×10^4 cells/mL (wherein the cell concentration and the survival rate were measured using CASY cell counter). After individual samples had been cultured for 2 days, the samples were subcultured under the same conditions to result in a cell density of 1.0×10^4 cells/mL. After completion of the culture for 3 days, individual samples were subcultured in a 25 cm^2 Flask to result in a cell density of 6.0×10^4 cells/mL with respect to 10 mL of the medium under the same conditions. After completion of the culture for 2 days (Day 7 of the culture), individual samples (in each amount of 2.0×10^6 cells) were recovered in a 1.5-mL tube, and thereafter, a supernatant was removed by centrifugation at 1,000×g for 5 min. The residue was re-suspended in 1 mL of D-PBS(−) (Nacalai Tesque, 14249-24), and a supernatant was then removed by centrifugation at 1,000×g for 5 min. The residue was preserved at −80° C. Moreover, individual samples from the remaining cells were subcultured in a 12-well dish to result in a cell density of 6.0×10^4 cells/mL with respect to 2 mL of the medium under the same conditions. After completion of the culture for 2 days, individual samples were subcultured under the same conditions to result in a cell density of 1.0×10^4 cells/mL. After completion of the culture for 3 days, individual samples were subcultured in a 25 cm^2 Flask to result in a cell density of 6.0×10^4 cells/mL with respect to 10 mL of the medium under the same conditions. After completion of the culture for 2 days (Day 14 of the culture), individual samples (in each amount of 2.0×10^6 cells) were recovered in a 1.5-mL tube, and thereafter, a supernatant was removed by centrifugation at 1,000×g for 5 min. The residue was re-suspended in 1 mL of D-PBS(−), and a supernatant was then removed by centrifugation at 1,000×g for 5 min. The residue was preserved at −80° C.
A frozen stock of the BMAA4-2 cell line (3.0×10^6 cells) was awaken with 10 mL of CS(−) medium, using a 25 cm^2 Flask, and the cells were then cultured in a CO2 incubator (39.5° C., 5% CO2). On the following day, 1 mL each of a CS(−) medium, to which each drug had been added, was added into each well of a 24-well dish, and the cells were then seeded thereon to a cell density of 3.0×10^5 cells/mL (wherein the cell concentration and the survival rate were measured using CASY cell counter). […]

Compound: Cc1nc(NC(=O)N2CCC[C@H]2C(N)=O)sc1-c1csc(C(C)(C)C)n1 [A66]
- NUS (number of unique sequences), antibody heavy chain variable region amino acid sequences (heavy chain): higher values than the negative control sample
- SBL (sum of branch length), antibody heavy chain variable region amino acid sequences (heavy chain): higher values than the negative control sample
- NUS (number of unique sequences), antibody light chain variable region amino acid sequences (light chain): higher values than the negative control sample
- SBL (sum of branch length), antibody light chain variable region amino acid sequences (light chain): higher values than the negative control sample
